The text below walks through data of patent US20070224301A1, “Compounds from an extract of Artemisia and methods for treating disorders” (priority 2006, published 2007).

The target of test [1] is T1, human recombinant ALR2 enzyme (Homo sapiens, UniProt P15121).
T1 construct: purchased Wako Chemicals USA Inc
The experiment in a line: ALR2 enzyme assay (decrease in NADPH absorbance at 340 nm). The format is biochemical. Conditions: for ALR2 inhibitory activity (in words, compared with quercitrin): 3.75 μg/ml where stated. Here is the method:
Human recombinant ALR2 enzyme was purchased from Wako Chemicals USA Inc. Enzyme activity was measured at each step of purification of the extract, by monitoring the decrease in NADPH absorbance at a wavelength of 340 nm (Nishimura et al., Purification and characterization of recombinant aldose reducatse expressed in baculovirus system. Biochim. Biophys. acta. pp. 1078-1171 (1991)), using a spectrophotometer. One hundred micro liters of the reaction mixture contained 100 mM sodium phosphate buffer (pH 6.2), 0.15 mM NADPH, 10 mM DL-Glyceraldehyde and 1 mU of human recombinant ALR2 enzyme. The samples were prepared in 10% DMSO and the final concentration of the samples or the positive control quercitrin was 3.75 μg/ml. The reaction was initiated by adding the enzyme and the change in NADPH absorbance was monitored over seven minutes.

The target of a further test is T2, PTP-1B (Homo sapiens, UniProt P18031).
T2 construct: Cell lysate was prepared and PTP-1B was immunoprecipitated with specific antibody; endogenous in cells; host or cells: primary skeletal muscle cell culture (subjects with type 2 diabetes)
T2 sequence (P18031 1-435): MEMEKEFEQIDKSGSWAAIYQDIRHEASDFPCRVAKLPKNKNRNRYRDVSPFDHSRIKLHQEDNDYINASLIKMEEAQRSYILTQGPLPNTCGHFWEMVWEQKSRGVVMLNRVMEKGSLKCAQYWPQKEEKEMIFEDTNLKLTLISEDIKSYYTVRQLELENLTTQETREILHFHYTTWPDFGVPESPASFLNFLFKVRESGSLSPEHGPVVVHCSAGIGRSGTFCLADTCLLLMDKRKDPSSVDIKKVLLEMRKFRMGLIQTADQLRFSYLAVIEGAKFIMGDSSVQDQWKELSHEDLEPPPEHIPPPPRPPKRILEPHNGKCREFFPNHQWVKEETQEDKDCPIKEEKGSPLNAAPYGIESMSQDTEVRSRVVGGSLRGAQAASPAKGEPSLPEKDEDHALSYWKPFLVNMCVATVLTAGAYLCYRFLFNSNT
The experiment in a line: PTP-1B activity by PNPP hydrolysis after immunoprecipitation from treated skeletal muscle cells. It is filed as cell-based. Conditions: 20 μg/ml of media; for PTP-1B inhibitory activity (decrease of PTP-1B activity): primary skeletal muscle culture from subjects with type 2 diabetes, 16 hours. As to the method: The activity of PTP-1B was assayed by hydrolysis of p-nitrophenol phosphate (PNPP). Skeletal muscle cells were incubated overnight (16 hours) with test substance (extract, fractions or pure compounds) at 20 μg/ml of media. Cell lysate was prepared and PTP-1B was immunoprecipitated with specific antibody (Upstate Biotechnology, Lake Placid, N.Y.). The immunoprecipitate was incubated in Phosphatase Reaction Buffer (20 mmol/L HEPES, pH 7.4, 150 mmol/L NaCl, 5 mM dithiothreitol, 1 mmol/L PNPP) for 20 minutes at 37° C. The reaction was stopped with 0.2 mol/L NaOH, and the absorbance at 410 nm was measured. The reactions were run in triplicate (Moeslein et al., The CLK family kinases, CLK1 and CLK2, phosphorylate and activate the tyrosine phosphatase, PTP-1B. J Biol Chem, 274:26697-26704 (1999)).

The subject of another test is PEPCK gene expression. The experiment in a line: PEPCK gene inhibition assay (Dex/cAMP-induced, qPCR) in H4IIE hepatoma cells. The format is cell-based, rat. Conditions: 25 μg/ml. As to the method:
H4IIE hepatoma cells (ATCC CRL-1600) were plated in 24-well tissue culture plates (Greiner Bio One) and were grown to confluence in Dulbecco's modified Eagle's medium (DMEM) containing 2.5% (v/v) newborn calf serum and 2.5% (v/v) fetal calf serum. Cells were treated for 8 hours with 500 nM dexamethasone and 0.1 mM cAMP (Dex/cAMP, both Sigma) to induce PEPCK gene expression and different concentrations or volumes of each of the tested compounds, plant extract or […] of Insulin. The fractions were tested at 50 μg/ml of media and the compounds were tested at the doses of 2.5 μg/ml, 5 μg/ml and 10 μg/ml and 25 μg/ml. Three wells were allocated for each treatment as well as for a negative control (untreated cells).
Total RNA was extracted from H4IIE rat hepatoma cells using Trizol reagent (Invitrogen Inc.) following the manufacturer instructions. RNA was quantified spectro-photo-metrically by absorption measurements at 260 nm and 280 nm using the NanoDrop system (NanoDrop Technologies Inc. Delware, USA). Quality of RNA was assessed by separation in gel-electrophoresis. […]
The synthesized cDNAs were diluted 4-fold. […] The other components of the PCR reactions were 0.5 μl of 6 μM gene specific primers (synthesized by IDT Inc. USA), 12.5 μl of Brilliant SYBR green PCR master mix (2×) (Stratagene, La Jolla, Calif.) containing green jump-start Taq ready mix. […]
(In qPCR the cycle at which signal appears reflects the starting amount.)

The test system of another test is PTP-1B mRNA. The experiment in a line: Quantitative real time PCR for PTP-1B gene expression. It is filed as cell-based. Conditions: skeletal muscle cells, 20 μg/ml of media. Here is the method:
Cells were incubated overnight (16 hours) with test substance (extract, fractions or pure compounds) at 20 μg/ml of media and harvested from the culture treatments at the designated time points. After extraction and quantification of RNA, quantitative real time PCR (qPCR) analysis was carried out using Taqman® one-step RT-PCR Master Mix (Applied Biosystems, Branchburg, N.J.). 20 ng of total RNA were added per 50 μl reaction with sequence-specific primers (200 nM) and Taqman® probes (200 nM) as indicated here, PTP-1B probe; 5′FAM d(AGTGATGGAGAAAGGTT)BHQ-1 3′. PTP-1B forward primer; 5′ d([…])3′ and PTP-1B reverse primer; 5′ d([…])3′. Primers and probes were designed by and purchased from Applied Biosystems. qPCR assays were carried out in triplicate on an ABI Prism 7700 sequence detection system. […] The threshold was set above the non-template control background and within the linear phase of target gene amplification to calculate the cycle number at which the transcript was detected (denoted CT). Gene expression values were calculated based on the standard curve of each target gene (RNA of control cells with two-fold serial dilutions from 200 ng to 3.125 ng) and normalized by the reference housekeeping gene β-Actin (1). Results were expressed as percentage change of control (Applied Biosystems (2001) Applied Biosystems User Bulletin Number 2, Foster City, Calif.).

For the compound `COc1ccc(CCC(=O)c2ccc(O)cc2O)cc1` (single isomer, unassigned) [F7-9/P3, 2′,4′-dihydroxy-4-methoxydihydrochalcone], the inhibition at 3.75 µg/mL in test [1] (3.75 μg/ml) was 58.2%.
With `O=C(/C=C/c1ccc(O)c(O)c1)OC1CC(O)(C(=O)O)CC(O)C1OC(=O)/C=C/c1ccc(O)c(O)c1` (single isomer, unassigned) [Sub-fraction 5-7, 4,5-Di-O-caffeoylquinic acid], in test [1] (3.75 μg/ml), the “greater inhibition of ALR2 than that caused by quercitrin” value was determined as 19% and the inhibition at 3.75 µg/mL stood at 78%.
With `O=C(/C=C/c1ccc(O)c(O)c1)OC1CC(O)(C(=O)O)CC(O)C1OC(=O)/C=C/c1ccc(O)c(O)c1` (stereo not shown) [Compound 1, 4,5-Di-O-caffeoylquinic acid], the “ALR2 inhibitory activity (in words, compared with quercitrin)” value in test [1] is given as “highest inhibitory activity”.
As for `O=C(CCc1ccc(O)cc1)c1ccc(O)cc1O` [Compound 2, Davidigenin], the “ALR2 inhibitory activity (in words, compared with quercitrin)” value in test [1] is recorded as “shows ALR2 inhibition activity”.
`COc1ccc(CCC(=O)c2ccc(O)cc2O)cc1` [Compound 4, 2′,4′-dihydroxy-4-methoxydihydrochalcone]: the “PTP-1B inhibitory activity (decrease of PTP-1B activity)” value at PTP-1B was ≤ 26%. In addition, the “repression of dexamethazone/cAMP-induced PEPCK gene expression” value in the test with PEPCK gene expression and in the test on PEPCK gene expression (listed as DMDC) was “more than 50%” each time. Besides, the “reduction of PTP-1B mRNA expression” value with PTP-1B mRNA was found to be 29%.
Take `COc1ccc(C(=O)CCc2ccc(O)cc2)c(O)c1` [Compound 5, 2′,4-dihydroxy-4′-methoxydihydrochalcone]: the “PTP-1B inhibitory activity (decrease of PTP-1B activity)” value on PTP-1B is given as ≤ 36%.
`COc1cc(O)c2c(c1)O[C@H](c1ccc(O)cc1)CC2=O` [Compound 6, Sakuranetin]: at PTP-1B, the “PTP-1B inhibitory activity (decrease of PTP-1B activity)” value is given as ≤ 50%. Further, on PTP-1B (skeletal muscle cells), the “PTP-1B inhibitory activity (in words)” value is given as “decrease PTP-1B activity”.
For `C[C@@H]1O[C@@H](Oc2c(-c3ccc(O)c(O)c3)oc3cc(O)cc(O)c3c2=O)[C@H](O)[C@H](O)[C@H]1O` [quercitrin, reference compound], the inhibition at 3.75 µg/mL in test [1] (3.75 μg/ml) is 54%.

As a reminder, the inhibition is the relative decrease from the control value, in per cent.
